Test results from patent US6528516B1, “Methods for reducing intraocular pressure using A3 adenosine receptor antagonists” (Trustees of the University of Pennsylvania, The Center for …, priority 1998, dated 2003).

Legend:
HCE cells = assay: Free intracellular Ca2+ in HCE cells (fura-2); format: cell-based, human
Procedure: In other cells, stimulation of the A3-receptor can lead to an elevation of intracellular Ca^2+(Kohno et al., supra.), so intracellular Ca^2+was monitored in HCE cells to provide an additional physiologic assay for the presence of A3 receptors. HCE cells grown on coverslips for 24-48 hrs were loaded with 1-5 μM fura-2 AM for 30-45 min at room temperature. The cells were subject to a post-incubation interval of 20-40 minutes at room temperature before recording began. The coverslips were mounted on a Nikon Diaphot microscope and visualized with a ×40 oil-immersion fluorescence objective. The emitted fluorescence (510 nm) from 10-12 confluent cells was acquired at a sampling frequency of 1 Hz following excitation at 340 nm and 380 nm, and the ratio was determined with a Delta-Ram system and Felix software (Photon Technology International Inc., Princeton, N.J.).Cells were perfused with an isotonic solution consisting of (in mM) 105 NaCl, 6HEPES (acid), 4HEPES (Na^+), 2 CaCl2, 1 MgCl2, 4 KCl, 5 glucose and 90 mannitol, at an osmolality of 327 mOsm, pH 7.4. […]
where Rmin and Rmax are the ratio of fluorescence at […] in the absence of Ca^2+, and in the presence of saturating Ca^2+, respectively. R is the ratio measured experimentally. The S2f and S2b are the fluorescence emitted at 380 nM in the Ca^2+ free and Ca^2+ bound states respectively. […]

rabbit iris-ciliary body = assay: Short-circuit current across intact rabbit ciliary epithelium (iris-ciliary body), 5 mM Ba2+; details: 30 μM, solvent-corrected
Source text: Adult male Dutch belted rabbits weighing 1.8-2.4 kg (Ace Animals, Boyertown, Pa.) were anesthetized with pentobarbital and sacrificed (Carre et al., J. Membr. Biol. 146:293-305, 1995). After enucleation, the iris-ciliary body (I-CB) was isolated as previously described (Carre et al., 1995, supra.). The experiments were in accordance with the Resolution on the Use of Animals in Research of the Association for Research in Vision and Ophthalmology.
The pupil and central iris were occluded with a Lucite disc, and the iris-ciliary body was mounted between the two halves of a Lucite chamber (1). The annulus of exposed tissue provided a projected surface area of 0.93 cm^2. Preparations were continuously bubbled with 95%O2-5%CO2 for maintenance of pH 7.4 in a Ringer's solution comprising (in mM): 110.0 NaCl, 10.0HEPES (acid), 5.0HEPES (Na^+), 30.0 NaHCO3, 2.5 CaCl2, 1.2 MgCl2, 5.9 KCl, and 10.0 glucose, at an osmolality of 305 mOsm. BaCl2 (5 mM) was added to the solution to block K^+ currents. The transepithelial potential was fixed at 0 mV, corrected for solution series resistance, and the short-circuit current was monitored on a chart recorder. Data were digitally acquired at 10 Hz via a DigiData 1200A converter and AxoScope 1.1 software (Axon Instruments, Foster City, Calif.). Automatic averaging was performed with a reduction factor of 100 to achieve a final sampling rate of 6/min. […]

Compound: CNC(=O)[C@H]1O[C@@H](n2cnc3c(NCc4cccc(I)c4)ncnc32)[C@H](O)[C@@H]1O [IB-MECA, N^6-(3-iodobenzyl)-adenosine-5′-N-methyluronamide]
- mean rise of intracellular Ca2+ (HCE cells; 100 nM IB-MECA): 17 ± 5 nM
- mean rise of intracellular Ca2+ (HCE cells; 1 μM IB-MECA): 22 ± 6 nM
- effect on short-circuit current (rabbit iris-ciliary body): significant increase in the short-circuit current
